Source: ChEMBL document CHEMBL1629692, “Susceptibility of gram-negative pathogens isolated from patients with complicated intra-abdominal infections in the United States, 2007-2008: results of the Study for Monitoring Antimicrobial Resistance Trends (SMART)” (2010)

Experiments:
Assay type in all cases: functional
[1] = test system: Escherichia coli; test: Antimicrobial activity against extended-Spectrum beta-lactamase-negative Escherichia coli obtained from patient with complicated intra-abdominal infection assessed as percent susceptible isolates by agar dilution method in presence of beta-lactamase inhibitor Sulbactam
[2] = test system: Pseudomonas fluorescens; test: Antimicrobial activity against Pseudomonas fluorescens assessed as percent susceptible isolates by agar dilution method in presence of beta-lactamase inhibitor Sulbactam
[3] = test system: Klebsiella oxytoca; test: Antimicrobial activity against extended-spectrum beta-lactamase-positive Klebsiella oxytoca assessed as percent susceptible isolates by agar dilution method in presence of beta-lactamase inhibitor Sulbactam
[4] = test system: Proteus mirabilis; test: Antimicrobial activity against extended-spectrum beta-lactamase-positive Proteus mirabilis assessed as percent susceptible isolates by agar dilution method in presence of beta-lactamase inhibitor Sulbactam
[5] = test system: Escherichia coli; test: Antimicrobial activity against extended-spectrum beta-lactamase-positive Escherichia coli obtained from patient with complicated intra-abdominal infection assessed as percent susceptible isolates by agar dilution method in presence of beta-lactamase inhibitor Sulbactam
[6] = test system: Acinetobacter sp.; test: Antimicrobial activity against Acinetobacter sp. assessed as percent susceptible isolates by agar dilution method in presence of beta-lactamase inhibitor Sulbactam
[7] = test system: Serratia marcescens; test: Antimicrobial activity against Serratia marcescens assessed as percent susceptible isolates by agar dilution method in presence of beta-lactamase inhibitor Sulbactam
[8] = test system: Pasteurella sp.; test: Antimicrobial activity against Pasteurella sp. assessed as percent susceptible isolates by agar dilution method in presence of beta-lactamase inhibitor Sulbactam
[9] = test system: Klebsiella pneumoniae; test: Antimicrobial activity against Klebsiella pneumoniae assessed as percent susceptible isolates by agar dilution method in presence of beta-lactamase inhibitor Sulbactam
[10] = test system: Klebsiella pneumoniae; test: Antimicrobial activity against extended-spectrum beta-lactamase-negative Klebsiella pneumoniae assessed as percent susceptible isolates by agar dilution method in presence of beta-lactamase inhibitor Sulbactam
[11] = test system: Stenotrophomonas maltophilia; test: Antimicrobial activity against Stenotrophomonas maltophilia assessed as percent susceptible isolates by agar dilution method in presence of beta-lactamase inhibitor Sulbactam
[12] = test system: Klebsiella pneumoniae; test: Antimicrobial activity against extended-spectrum beta-lactamase-positive Klebsiella pneumoniae assessed as percent susceptible isolates by agar dilution method in presence of beta-lactamase inhibitor Sulbactam
[13] = test system: Enterobacter cloacae; test: Antimicrobial activity against Enterobacter cloacae obtained from patient with complicated intra-abdominal infection assessed as percent susceptible isolates by agar dilution method in presence of beta-lactamase inhibitor Sulbactam
[14] = test system: Klebsiella aerogenes; test: Antimicrobial activity against Enterobacter aerogenes obtained from patient with complicated intra-abdominal infection assessed as percent susceptible isolates by agar dilution method in presence of beta-lactamase inhibitor Sulbactam
[15] = test system: Escherichia coli; test: Antimicrobial activity against Escherichia coli obtained from patient with complicated intra-abdominal infection assessed as percent susceptible isolates by agar dilution method in presence of beta-lactamase inhibitor Sulbactam
[16] = test system: Citrobacter freundii; test: Antimicrobial activity against Citrobacter freundii obtained from patient with complicated intra-abdominal infection assessed as percent susceptible isolates by agar dilution method in presence of beta-lactamase inhibitor Sulbactam

SMILES: CC1(C)S[C@@H]2[C@H](NC(=O)[C@H](N)c3ccccc3)C(=O)N2[C@H]1C(=O)O [AMPICILLIN]
- Activity [1]: 64%
- Activity [2]: 46%
- Activity [3]: 57%
- Activity [4]: 97%
- Activity [5]: 24%
- Activity [6]: 46%
- Activity [7]: 13%
- Activity [8]: 46%
- Activity [9]: 69%
- Activity [10]: 83%
- Activity [11]: 46%
- Activity [12]: 3%
- Activity [13]: 17%
- Activity [14]: 21%
- Activity [15]: 62%
- Activity [16]: 61%
